Experimental data reported in patent US11292781B2, “Pyrimidine tricyclic enone derivatives for inhibition of ROR-gamma and other uses” (REATA PHARMACEUTICALS, INC., priority 2016, dated 2022).

System: Nrf2 transcription factor (GST ARE luciferase reporter in AREc32 cells)
Assay: AREc32 luciferase reporter assay
Assay type: cell-based, human
Details: EC2×: concentration required to increase GST ARE luciferase reporter activity by 2-fold, 19 hours
From the text: A. AREc32 Luciferase Reporter Assay The AREc32 luciferase reporter assay allows for quantitative assessment of the endogenous activity of the Nrf2 transcription factor in cultured mammalian cells. AREc32 cells are derived from MCF-7 human breast carcinoma cells that were stably transfected with a reporter construct that contains the firefly luciferase gene located downstream of eight copies of the rat GSTA2 antioxidant response element (ARE) sequence (Wang et al., 2006; CXR Biosciences). Active NRF2 binds to the ARE sequences and increases expression of the firefly luciferase gene. […] Luciferase activity was determined using the ONE-Glo Luciferase assay (Promega). The luminescence signal was measured on a BMG Pherastar microplate reader. The mean luminescence value from test compound-treated wells was normalized to that from DMSO-treated wells and was represented as fold-induction. Data were analyzed using GraphPad Prism version 6.00 for Windows, GraphPad Software, La Jolla Calif. USA. A non-linear regression curve with log (agonist) vs. response using a variable slope was used to fit the data. […] EC2× values were interpolated from the curve.

## Cc1cc(-c2nc(-c3ccccc3)c3c(n2)[C@]2(C)C=C(C#N)C(=O)[C@H](C)[C@H]2CCC3)ccn1 [T182]
  HRF2 ARE 2×: 892 nM

## C[C@H]1C(=O)C(C#N)=C[C@@]2(c3ccccc3)c3nc(-c4ccnc(C5CC5)c4)nc(-c4ccccc4F)c3CC[C@H]12 [T147]
  HRF2 ARE 2×: >2000 nM

## CC(=O)N1CCN(c2nc(-c3ccccc3F)c3c(n2)[C@]2(C)C=C(C#N)C(=O)[C@H](C)[C@H]2CC3)CC1 [T139]
  HRF2 ARE 2×: 222 nM

## C[C@H]1C(=O)C(C#N)=C[C@@]2(C)c3nc(-c4cccc5ncccc45)nc(-c4ccccc4F)c3C[C@H]12 [T173]
  HRF2 ARE 2×: >2000 nM

## C[C@H]1C(=O)C(C#N)=C[C@@]2(C)c3nc(N4CCN(C)CC4)nc(-c4ccccc4F)c3CC[C@H]12 [T91]
  HRF2 ARE 2×: 552 nM

## C[C@H]1C(=O)[C@@]2(C#N)O[C@H]2[C@@]2(C)c3nc(-c4ccnc5cc(F)ccc45)nc(-c4ccccc4F)c3CC[C@H]12 [T129]
  HRF2 ARE 2×: 697 nM

## C[C@H]1C(=O)C(C#N)=C[C@@]2(C)c3nc(-c4ccncc4)nc(-c4ccc(Cl)c(Cl)c4)c3CC[C@H]12 [T31]
  HRF2 ARE 2×: 186 nM

## Cc1cnccc1-c1nc(-c2ccccc2F)c2c(n1)[C@]1(C)C=C(C#N)C(=O)[C@H](C)[C@H]1CC2 [T56]
  HRF2 ARE 2×: 193 nM

## C[C@H]1C(=O)C(C#N)=C[C@@]2(C)c3nc(-c4ccncc4)nc(Cc4ccccc4)c3CC[C@H]12 [T36]
  HRF2 ARE 2×: 484 nM

## C[C@H]1C(=O)C(C(N)=O)=C[C@@]2(C)c3nc(-c4ccncc4)nc(-c4ccccc4)c3CC[C@H]12 [T16]
  HRF2 ARE 2×: 1000 nM

## C[C@H]1C(=O)C(C#N)=C[C@@]2(C)c3nc(-c4ccnc5ccccc45)nc(-c4ccccc4F)c3C[C@H]12 [T170]
  HRF2 ARE 2×: 1222 nM

## C[C@H]1C(=O)C(C#N)=C[C@@]2(C)c3nc(-c4ccncc4)nc(-c4ccc(C(F)(F)F)cc4)c3CC[C@H]12 [T24]
  HRF2 ARE 2×: 171 nM

## Cc1ccc(-c2nc(-c3ccccc3F)c3c(n2)[C@]2(C)C=C(C#N)C(=O)[C@H](C)[C@H]2CC3)cn1 [T88]
  HRF2 ARE 2×: 177 nM

## C[C@H]1C(=O)[C@@]2(C#N)O[C@H]2[C@@]2(C)c3nc(-c4ccnc(C5CC5)c4)nc(-c4ccccc4F)c3CC[C@H]12 [T130]
  HRF2 ARE 2×: 692 nM

## Cc1cc(-c2nc(-c3ccccc3F)c3c(n2)[C@]2(C)C=C(C#N)C(=O)[C@H](C)[C@H]2C3)c2cccc(F)c2n1 [T172]
  HRF2 ARE 2×: 998 nM

## Cc1cc(-c2nc(-c3ccccc3F)c3c(n2)[C@]2(C)C=C(C#N)C(=O)[C@H](C)[C@H]2CC3)ccn1 [T51]
  HRF2 ARE 2×: 364 nM

## C[C@H]1C(=O)C(C#N)=C[C@@]2(C)c3nc(-c4ccncc4)nc(-c4cccnc4)c3CC[C@H]12 [T25]
  HRF2 ARE 2×: 449 nM

## C[C@H]1C(=O)C(C#N)=C[C@@]2(C)c3nc(-c4ccnc5ccccc45)nc(-c4ccccc4F)c3CC[C@H]12 [T37]
  HRF2 ARE 2×: 351 nM

## Cc1cc(-c2nc(-c3ccc(F)cc3)c3c(n2)[C@]2(C)CC(C#N)C(=O)[C@H](C)[C@H]2CC3)ccn1 (some centres unmarked) [T187]
  HRF2 ARE 2×: >2000 nM

## C[C@H]1C(=O)C(C#N)=C[C@@]2(C)c3nc(-c4ccccc4)nc(-c4ccccc4)c3CC[C@H]12 [T19]
  HRF2 ARE 2×: 741 nM

## CC1=C2CCc3c(-c4ccccc4F)nc(-c4ccnc5c(F)cccc45)nc3[C@]2(C)C=C(C#N)C1=O [T128]
  HRF2 ARE 2×: 1385 nM

## COc1nc(OC)c2c(n1)[C@]1(C)C=C(C#N)C(=O)[C@H](C)[C@H]1CC2 [T1]
  HRF2 ARE 2×: 487 nM

## C[C@H]1C(=O)C(C#N)=C[C@@]2(C)c3nc(-c4ccc5ncccc5c4)nc(-c4ccccc4F)c3CC[C@H]12 [T60]
  HRF2 ARE 2×: 380 nM

## C[C@H]1C(=O)C(C#N)=C[C@@]2(C)c3ncnc(-c4ccccc4)c3CC[C@H]12 [T22]
  HRF2 ARE 2×: 90 nM

## CC1(C)C(=O)[C@@]2(C#N)O[C@H]2[C@@]2(C)c3nc(-c4ccnc5ccccc45)nc(-c4ccccc4F)c3CC[C@H]12 [T133]
  HRF2 ARE 2×: 1199 nM

## Cc1cc(-c2nc(-c3ccc(F)cc3)c3c(n2)[C@]2(C)C=C(C(N)=O)C(=O)[C@H](C)[C@H]2CC3)ccn1 [T184]
  HRF2 ARE 2×: 1832 nM

## Cc1cc(-c2nc(-c3ccc(F)cc3)c3c(n2)[C@]2(C)C=C(C#N)C(=O)[C@H](C)[C@H]2CC3)ccn1 [T50]
  HRF2 ARE 2×: 256 nM

## CC(C)c1ccc(-c2nc(-c3ccnc4ccccc34)nc3c2CC[C@@H]2[C@@H](C)C(=O)C(C#N)=C[C@@]32C)cc1 [T161]
  HRF2 ARE 2×: 158 nM

## C=CC[C@H]1C(=O)C(C#N)=C[C@@]2(C)c3nc(-c4ccnc(C5CC5)c4)nc(-c4ccccc4F)c3CC[C@H]12 [T145]
  HRF2 ARE 2×: 337 nM

## C[C@H]1C(=O)C(C#N)=C[C@@]2(C)c3nc(-c4ccnc5ccccc45)nc(-c4ccc(-c5ccccc5)cc4)c3CC[C@H]12 [T163]
  HRF2 ARE 2×: 312 nM

## C[C@H]1C(=O)C(C#N)=C[C@@]2(C)c3nc(-c4ccccc4F)nc(-c4ccccc4F)c3CC[C@H]12 [T81]
  HRF2 ARE 2×: 705 nM

## Cc1ccc(S(=O)(=O)Oc2nc(-c3ccncc3)nc3c2CC[C@@H]2[C@@H](C)C(=O)C(C#N)=C[C@@]32C)cc1 [T18]
  HRF2 ARE 2×: 381 nM

## COc1nc(-c2ccncc2C)nc2c1CC[C@@H]1[C@@H](C)C(=O)C(C#N)=C[C@@]21C [T4]
  HRF2 ARE 2×: 449 nM

## C[C@H]1C(=O)C(C#N)=C[C@@]2(C)c3nc(-c4ccnc(CO)c4)nc(-c4ccccc4F)c3CC[C@H]12 [T82]
  HRF2 ARE 2×: 480 nM

## C[C@H]1C(=O)C(C#N)=C[C@@]2(C)c3nc(-c4ccncc4)nc(-c4ccccc4)c3CC[C@H]12 [T14]
  HRF2 ARE 2×: 281 nM

## CCC[C@H]1C(=O)C(C#N)=C[C@@]2(C)c3nc(-c4ccnc(C5CC5)c4)nc(-c4ccccc4F)c3CC[C@H]12 [T146]
  HRF2 ARE 2×: 447 nM

## COc1nc(-c2ccnc(F)c2)nc2c1CC[C@@H]1[C@@H](C)C(=O)C(C#N)=C[C@@]21C [T6]
  HRF2 ARE 2×: 341 nM

## C[C@H]1C(=O)[C@@]2(C#N)O[C@H]2[C@@]2(C)c3nc(-c4ccncc4)nc(-c4ccccc4)c3CC[C@H]12 [T15]
  HRF2 ARE 2×: 738 nM

## C[C@H]1C(=O)C(C#N)=C[C@@]2(C)c3nc(N)nc(-c4ccccc4)c3CC[C@H]12 [T34]
  HRF2 ARE 2×: 469 nM

## C[C@H]1C(=O)C(C#N)=C[C@@]2(C)c3nc(-c4ccnc(CF)c4)nc(-c4ccccc4F)c3C[C@H]12 [T171]
  HRF2 ARE 2×: 1474 nM

## COc1nc(-c2ccncc2)nc2c1CC[C@@H]1[C@@H](C)C(=O)C(C#N)=C[C@@]21C [T5]
  HRF2 ARE 2×: 365 nM

## COc1nc(-c2ccncc2)nc2c1CC[C@@H]1[C@@H](C)C(=O)C=C[C@@]21C [T134]
  HRF2 ARE 2×: 3137 nM

## CCC[C@@]12C=C(C#N)C(=O)[C@H](C)[C@H]1CCc1c(-c3ccccc3F)nc(-c3ccnc(C4CC4)c3)nc12 [T169]
  HRF2 ARE 2×: 540 nM

## Cc1ccc(-c2nc(-c3ccncc3)nc3c2CC[C@@H]2[C@@H](C)C(=O)C(C#N)=C[C@@]32C)cc1 [T27]
  HRF2 ARE 2×: 181 nM

## C[C@H]1C(=O)C(C#N)=C[C@@]2(C)c3nc(-c4ccc(C(F)(F)F)cc4)nc(-c4ccccc4)c3CC[C@H]12 [T20]
  HRF2 ARE 2×: 608 nM

## C[C@H]1C(=O)C(C#N)=C[C@@]2(C)c3nc(-c4ccncc4)nc(-c4ccc(Cl)cc4)c3CC[C@H]12 [T28]
  HRF2 ARE 2×: 141 nM

## C[C@H]1C(=O)C(C#N)=C[C@@]2(C)c3nc(N4CCOCC4)nc(-c4ccccc4F)c3CC[C@H]12 [T92]
  HRF2 ARE 2×: 491 nM

## CC[C@@]1(C)C(=O)C(C#N)=C[C@@]2(C)c3nc(-c4ccnc(C5CC5)c4)nc(-c4ccccc4F)c3CC[C@H]12 [T181]
  HRF2 ARE 2×: 518 nM

## COc1ccc(-c2nc(-c3ccncc3)nc3c2CC[C@@H]2[C@@H](C)C(=O)C(C#N)=C[C@@]32C)cc1 [T30]
  HRF2 ARE 2×: 136 nM

## C[C@H]1C(=O)C(C#N)=C[C@@]2(C)c3nc(-c4ccnc(C5CC5)c4)nc(-c4ccccc4F)c3C[C@H]12 [T174]
  HRF2 ARE 2×: >2000 nM

## C[C@H]1C(=O)C(C#N)=C[C@@]2(C)c3nc(-c4ccncc4)nc(-c4ccc(CO)cc4)c3CC[C@H]12 [T21]
  HRF2 ARE 2×: 443 nM

## COc1nc(-c2cccnc2)nc2c1CC[C@@H]1[C@@H](C)C(=O)C(C#N)=C[C@@]21C [T7]
  HRF2 ARE 2×: 388 nM

## CC1(C)C(=O)C(C#N)=C[C@@]2(C)c3nc(-c4ccnc5ccccc45)nc(-c4ccccc4F)c3CC[C@H]12 [T118]
  HRF2 ARE 2×: 395 nM

## C[C@H]1C(=O)C(C#N)=C[C@@]2(C)c3nc(-c4ccnc(CCC(N)=O)c4)nc(-c4ccccc4F)c3CC[C@H]12 [T177]
  HRF2 ARE 2×: 491 nM

## C[C@H]1C(=O)C(C#N)=C[C@@]2(C)c3nc(-c4ccncc4)nc(-c4cccc(C(F)(F)F)c4)c3CC[C@H]12 [T26]
  HRF2 ARE 2×: 267 nM

## C[C@H]1C(=O)C(C#N)=C[C@@]2(C)c3nc(-c4ccncc4)nc(-c4ccncc4)c3CC[C@H]12 [T29]
  HRF2 ARE 2×: 484 nM

## COc1nc(-c2ccnc(C)c2)nc2c1CC[C@@H]1[C@@H](C)C(=O)C(C#N)=C[C@@]21C [T3]
  HRF2 ARE 2×: 232 nM

## C[C@H]1C(=O)C(C#N)=C[C@@]2(C)c3nc(NC(=O)C4CCCCC4)nc(-c4ccccc4)c3CC[C@H]12 [T35]
  HRF2 ARE 2×: 575 nM

## C[C@H]1C(=O)C(C#N)=C[C@@]2(C)c3nc(-c4ccnc(CF)c4)nc(-c4ccccc4F)c3CC[C@H]12 [T83]
  HRF2 ARE 2×: 484 nM

## C[C@H]1C(O)=C(C#N)C[C@@]2(C)c3nc(-c4ccncc4)nc(-c4ccccc4)c3CC[C@H]12 [T13]
  HRF2 ARE 2×: >2000 nM

## C[C@H]1C(=O)C(C#N)=C[C@@]2(C)c3nc(-c4cn(C)c5ncccc45)nc(-c4ccccc4F)c3CC[C@H]12 [T72]
  HRF2 ARE 2×: 374 nM

## COc1cc(-c2nc(OC)c3c(n2)[C@]2(C)C=C(C#N)C(=O)[C@H](C)[C@H]2CC3)ccn1 [T2]
  HRF2 ARE 2×: 247 nM
